Experimental data taken from ChEMBL document CHEMBL5233251, “Epoxide containing molecules: A good or a bad drug design approach” (Eur J Med Chem, 2020).
In brackets after ≈: the same amount, converted by molar mass. Where a SMILES comes first, the peptide text is derived from it. [ ]: non-standard residue; d: D form. Aoe = N[C@@H](CCCCCC(=O)[C@@H]1CO1)C(=O)O

Legend:
A549 = assay: Antiproliferative activity against human A549 cells assessed as reduction in cell viability incubated for 72 hrs by MTT assay; type: functional, cell-based; settings: A549, 72 h
NCI-H1299 = assay: Antiproliferative activity against human NCI-H1299 cells assessed as reduction in cell viability incubated for 72 hrs by MTT assay; type: functional, cell-based; settings: NCI-H1299, 72 h
SK-MES-1 = assay: Antiproliferative activity against human SK-MES-1 cells assessed as reduction in cell viability incubated for 72 hrs by MTT assay; type: functional, cell-based; settings: SK-MES-1, 72 h
NCI-H460 = assay: Antiproliferative activity against human NCI-H460 cells assessed as reduction in cell viability incubated for 72 hrs by MTT assay; type: functional, cell-based; settings: NCI-H460, 72 h
Calu-3 = assay: Antiproliferative activity against human Calu-3 cells assessed as reduction in cell viability incubated for 72 hrs by MTT assay; type: functional, cell-based; settings: Calu-3, 72 h
[1] = Cytotoxicity against human BEAS-2B assessed as reduction in cell viability incubated for 72 hrs by MTT assay; type: toxicity, cell-based; settings: BEAS-2B cells
[2] = Cytotoxicity against human DeFew cells assessed as inhibition of cell proliferation incubated for 72 hrs by MTT assay; type: functional, cell-based
MIA PaCa-2 = assay: Cytotoxicity against human MIA PaCa-2 cells assessed as inhibition of cell proliferation incubated for 72 hrs by MTT assay; type: functional, cell-based
HUVEC = assay: (§1) Cytotoxicity against HUVEC cells assessed as inhibition of cell growth incubated for 72 hrs by MTT assay; type: toxicity, cell-based, Homo sapiens; settings: huvec
Leishmania donovani = assay: Antileishmanial activity against Leishmania donovani promastigotes; type: functional, organism-based
HCT-116 [3] = assay: Antiproliferative activity against human HCT-116 cells assessed as inhibition of cell growth incubated for 72 hrs by MTT assay; type: functional, cell-based; settings: HCT-116, 72 h
HL-60 = assay: Antiproliferative activity against human HL-60 cells assessed as inhibition of cell growth incubated for 72 hrs by MTT assay; type: functional, cell-based; settings: HL-60, 72 h
SF-295 [4] = assay: Antiproliferative activity against human SF-295 cells assessed as inhibition of cell growth at 25 ug/ml incubated for 72 hrs by MTT assay relative to control; type: functional; parameters: scale not given: the % may be the effect or the level left; settings: dose 25 µg/ml
OVCAR-8 [5] = assay: Antiproliferative activity against human OVCAR-8 cells assessed as inhibition of cell growth at 25 ug/ml incubated for 72 hrs by MTT assay relative to control; type: functional; parameters: scale not given: the % may be the effect or the level left; settings: dose 25 µg/ml
OVCAR-8 [6] = assay: Antiproliferative activity against human OVCAR-8 cells assessed as inhibition of cell growth incubated for 72 hrs by MTT assay; type: functional, cell-based; settings: OVCAR-8, 72 h
HCT-116 [7] = assay: Antiproliferative activity against human HCT-116 cells assessed as inhibition of cell growth at 25 ug/ml incubated for 72 hrs by MTT assay relative to control; type: functional; parameters: scale not given: the % may be the effect or the level left; settings: dose 25 µg/ml
SF-295 [8] = assay: Antiproliferative activity against human SF-295 cells assessed as inhibition of cell growth incubated for 72 hrs by MTT assay; type: functional, cell-based; settings: SF-295, 72 h
RPMI-8226 = assay: Antitumor activity against human RPMI-8226 cells assessed as reduction in cell viability; type: functional, cell-based
SUD4 = assay: Antitumor activity against human SU-DHL-4 cells assessed as reduction in cell viability; type: functional, cell-based
[9] = Antitumor activity against human INA-6 cells assessed as reduction in cell viability; type: functional, cell-based
DOHH-2 = assay: Antitumor activity against human DOHH-2 cells assessed as reduction in cell viability; type: functional, cell-based
[10] = Induction of apoptosis in human multiple myeloma cell; type: functional, cell-based
T47D = assay: Antiproliferative activity against human T47D cells assessed as inhibition of cell proliferation incubated for 72 hrs by DAPI staining based flow cytometric analysis; type: functional
BE(2)-C = assay: Antiproliferative activity against human BE2C cells assessed as inhibition of cell growth by tryphan blue exclusion assay; type: functional, cell-based
[11] = Antiproliferative activity against human SH-EP cells assessed as inhibition of cell growth by tryphan blue exclusion assay; type: functional, cell-based
[12] = as §1; type: toxicity, cell-based, Homo sapiens; settings: human, HUVEC cells
MCF7 = assay: Cytotoxicity against human MCF7 cells incubated for 24 hrs by MTT assay; type: functional, cell-based; settings: MCF7, 24 h
SW480 = assay: Induction of apoptosis in human SW480 cells assessed as accumulation of cells at 5 uM incubated for 24 hrs by Acridine orange/ethidium bromide staining based fluorescent microscopic analysis (reference value: 13.6%); type: functional
B16 = assay: Antitumor activity against mouse B16 cells implanted in BDF1 mouse assessed as T/C ratio at 25 mg/kg, ip administered from day 1 to 5 and measured after 60 days; type: functional; settings: time 60 day
Sarcoma-180 [13] = assay: Antitumor activity against mouse Sarcoma-180 cells solid form implanted in ICR mouse assessed as T/C ratio at 12.5 mg/kg, ip administered from day 1 to 5 and measured after 60 days; type: functional; settings: time 60 day
Sarcoma-180 [14] = assay: Antitumor activity against mouse Sarcoma-180 cells ascitic form implanted in ICR mouse assessed as T/C ratio at 100 mg/kg, ip administered from day 1 to 5 and measured after 60 days; type: functional; settings: time 60 day
Ehrlich = assay: Antitumor activity against mouse Ehrlich cells implanted in ddY mouse assessed as T/C ratio at 70 mg/kg administered for 9 to 10 days; type: functional; settings: time 9-10 day
[15] = Antitumor activity against IMC (unknown origin) cells xenografted in CDF1 mouse assessed as T/C ratio at 200 mg/kg, ip administered from day 1 to 5 and measured after 60 days; type: functional; settings: time 60 day

`CC(=O)O[C@H]1[C@H]2O[C@]23[C@@H]2CC[C@@H]4C[C@@H](O)CC[C@]4(C)[C@H]2CC[C@]3(C)[C@H]1c1ccc(=O)oc1` [CINOBUFAGIN] showed an IC50 (A549) of 2300 nM, an IC50 (NCI-H1299) of 2300 nM and an IC50 (SK-MES-1) of 2300 nM. For the same compound, the IC50 (NCI-H460) was 2300 nM, the IC50 (Calu-3) was 2300 nM and the IC50 at 72 h [1] was 22.3 µM.

In the case of `CC(C)=CCCC1(C)OC1C=O` (stereo in doubt; 10a), the IC50 ([2]; defew) is reported as 45 µM, the IC50 (MIA PaCa-2; mia paca-2) is reported as 88.7 µM and the IC50 (HUVEC) is reported as 200 µM.

Compound `C[C@]1([C@H]2CC=C(C=O)CC2)CO1` has an IC50 (Leishmania donovani) of 3.87 µg/mL (≈ 23.3 µM), an IC50 (HCT-116 [3]) of 1.03 µg/mL (≈ 6.2 µM) and an IC50 (HL-60) of 1.03 µg/mL (≈ 6.2 µM). The Activity (SF-295 [4]) was 96.32%, the Activity (OVCAR-8 [5]) was 96.32% and the IC50 (OVCAR-8 [6]) was 1.03 µg/mL (≈ 6.2 µM). For the same compound, the Activity (HCT-116 [7]) was 96.32% and the IC50 (SF-295 [8]) was 1.03 µg/mL (≈ 6.2 µM).

`CC1=C(O)C(=O)c2c(ccc(O)c2O)C1=O` [DIONCOQUINONE B] gave an EC50 (RPMI-8226) of 7.6 µM, an EC50 (SUD4) of 7.6 µM and an EC50 [9] of 7.6 µM. For the same compound, the EC50 (DOHH-2) was 7.6 µM and the EC50 [10] was 11 µM.

With `C[C@@H]1NC(=O)[C@@H](C)NC(=O)[C@H](CCCCCC(=O)[C@@H]2CO2)NC(=O)[C@H]2CCCN2C1=O` (cyclo(A[dP][Aoe][dA])) the IC50 (T47D) was 37 nM, the IC50 (BE(2)-C) was 15 nM and the IC50 [11] was 18 nM.

For `CC(C)=CCCC1(C)OC1C=O` (stereo in doubt; 10b), the IC50 ([2]; Homo sapiens, DeFew, 72 h) was 89 µM, the IC50 (MIA PaCa-2; Homo sapiens, MIA PaCa-2, 72 h) was 94 µM and the IC50 at 72 h [12] was 162 µM.

For `COc1cc(CNC(=O)CCCCC2OC2C(C)C)ccc1O` (stereo not given), the IC50 (MCF7) was 50 µM.

In the case of `C[C@H]1C(=O)OC([C@@H](O)[C@](C)(O)[C@H]2[C@@H](O)C[C@H]3[C@@H]4C[C@H]5O[C@]56[C@@H](O)C=CC(=O)[C@]6(C)[C@H]4CC[C@]23C)[C@@H]1C` (stereo not given in full), the Activity (SW480) is reported as 33.8%.

Work on `CO[C@H]1[C@@H](OC)C[C@H](C)[C@@H](OC)C2=CC(=O)C(N3CCN(C)CC3)=C(NC(=O)/C(C)=C/C=C\[C@H](OC)[C@H](OC(N)=O)C3(C)CC3[C@@H]1C)C2=O` (stereo not given in full) yielded a T/C (B16) of 155%, a T/C (Sarcoma-180 [13]) of 167% and a T/C (Sarcoma-180 [14]) of 200%. For the same compound, the T/C (Ehrlich) was 141% and the T/C [15] was 358%.
